ChEMBL document CHEMBL4312025, “Synthesis, antiproliferative activity and DNA/RNA-binding properties of mono- and bis-(1,2,3-triazolyl)-appended benzimidazo[1,2-a]quinoline derivatives” (Eur J Med Chem, 2020)
Calls of active or inactive are those of the source. No cut-off for these calls is given here.

What was measured:
HCT-116 [1] = assay: Growth inhibition of human HCT116 cells incubated for 72 hrs by MTT assay; assay type: functional; conditions: HCT-116, 72 h
MCF7 = assay: Growth inhibition of human MCF7 cells incubated for 72 hrs by MTT assay; assay type: functional; conditions: MCF7, 72 h
NCI-H460 = assay: Growth inhibition of human H460 cells incubated for 72 hrs by MTT assay; assay type: functional; conditions: NCI-H460, 72 h
[2] = Growth inhibition of human HaCaT cells incubated for 72 hrs by MTT assay; assay type: cell-based
Calf thymus DNA [3] = assay: Binding affinity to calf thymus dsDNA assessed as binding constant in sodium cacodylate buffer at pH 7 by fluorescence spectroscopy; assay type: nucleic-acid assay; conditions: Bos taurus
Calf thymus DNA [4] = assay: Binding affinity to calf thymus dsDNA assessed as ratio for bound compound to polynucleotide in sodium cacodylate buffer at pH 7 by fluorescence spectroscopy based Scatchard analysis; assay type: nucleic-acid assay; conditions: Bos taurus
Calf thymus DNA [5] = assay: Binding affinity to calf thymus dsDNA assessed as ratio for fluorescence intensity of compound to fluorescence intensity for compound-polynucleotide complex in sodium cacodylate buffer at pH 7 by fluorescence spectroscopy based Scatchard method; assay type: nucleic-acid assay; conditions: Bos taurus
Calf thymus DNA [6] = assay: Binding affinity to calf thymus dsDNA assessed as change in melting temperature in sodium cacodylate buffer at pH 7 at compound:polynucleotide concentration ratio of 0.2 by thermal denaturation assay; assay type: nucleic-acid assay; conditions: Bos taurus
[7] = tested on: Poly(dA-dU)oligonucleotide; assay: Binding affinity to polyA-polyU dsRNA (unknown origin) assessed as change in melting temperature in sodium cacodylate buffer at pH 7 at compound:polynucleotide concentration ratio of 0.2 by thermal denaturation assay; assay type: nucleic-acid assay
[8] = Drug uptake in cytoplasm of human H460 cells assessed as perinuclear reticular staining at 1 uM incubated for 15 mins by fluorescence microscopy; assay type: ADME, cell-based; conditions: nci-h460, 0.25 h
[9] = Drug uptake in nucleus of human H460 cells at 1 uM incubated for 15 mins by fluorescence microscopy; assay type: ADME, cell-based; conditions: nci-h460, 0.25 h
[10] = Solubility of the compound in 0.05 M sodium cacodylate buffer with <0.01% DMSO upto 1X10'-5 mol/dm3 by UV/Visible spectra analysis; assay type: physicochemical
Calf thymus DNA [11] = assay: Binding affinity to calf thymus ds-DNA assessed as decrease in emission intensity of the compound in sodium cacodylate buffer at pH 7 at 1X10'-6 mol/dm3 by fluorescence spectroscopy; assay type: nucleic-acid assay; conditions: Bos taurus
[12] = tested on: Poly(dA-dU)oligonucleotide; assay: Binding affinity to polyA-polyU dsRNA (unknown origin) assessed as decrease in emission intensity of the compound in sodium cacodylate buffer at pH 7 at 1X10'-6 mol/dm3 by fluorescence spectroscopy; assay type: nucleic-acid assay
Calf thymus DNA [13] = assay: Binding affinity to calf thymus dsDNA assessed as stabilization of mixed DNA base pairs in sodium cacodylate buffer at pH 7 at compound:polynucleotide concentration ratio of 0.2 by thermal denaturation assay; assay type: nucleic-acid assay; conditions: Bos taurus
Calf thymus DNA [14] = assay: Binding affinity to calf thymus dsDNA assessed as intercalating activity by measuring weak negative ICD band between 300 and 330 nm in sodium cacodylate buffer at pH 7 at compound:polynucleotide concentration ratio of 0.1 to 0.3 by CD spectroscopy; assay type: nucleic-acid assay; conditions: Bos taurus
[15] = tested on: Poly(dA-dU)oligonucleotide; assay: Binding affinity to polyA-polyU dsRNA (unknown origin) assessed as intercalating activity by measuring decrease in CD spectra of polynucleotides in sodium cacodylate buffer at pH 7 at compound:polynucleotide concentration ratio of 0.1 to 0.4 by CD spectroscopy; assay type: nucleic-acid assay
Calf thymus DNA [16] = assay: Binding affinity to calf thymus dsDNA assessed as intercalating activity by measuring decrease in CD spectra of polynucleotides in sodium cacodylate buffer at pH 7 at compound:polynucleotide concentration ratio of 0.1 to 0.3 by CD spectroscopy; assay type: nucleic-acid assay; conditions: Bos taurus
[17] = tested on: Poly(dA-dU)oligonucleotide; assay: Binding affinity to polyA-polyU dsRNA (unknown origin) assessed as biphasic thermal denaturation transitions in sodium cacodylate buffer at pH 7 at compound:polynucleotide concentration ratio of 0.2 by thermal denaturation assay; assay type: nucleic-acid assay
[18] = tested on: Poly(dA-dU)oligonucleotide; assay: Binding affinity to polyA-polyU dsRNA (unknown origin) assessed as binding constant in sodium cacodylate buffer at pH 7 by fluorescence spectroscopy; assay type: nucleic-acid assay
[19] = tested on: Poly(dA-dU)oligonucleotide; assay: Binding affinity to polyA-polyU dsRNA (unknown origin) assessed as ratio for bound compound to polynucleotide in sodium cacodylate buffer at pH 7 by fluorescence spectroscopy based Scatchard method; assay type: nucleic-acid assay
[20] = tested on: Poly(dA-dU)oligonucleotide; assay: Binding affinity to polyA-polyU dsRNA (unknown origin) assessed as ratio for fluorescence intensity of compound to fluorescence intensity for compound-polynucleotide complex in sodium cacodylate buffer at pH 7 by fluorescence spectroscopy based Scatchard method; assay type: nucleic-acid assay
HCT-116 [21] = assay: Cell cycle arrest in human HCT116 cells at 0.5 to 1 uM incubated for 24 and 48 hrs by propidium iodide staining based flow cytometry; assay type: functional
[22] = Selectivity index, ratio of GI50 for human HaCaT cells to GI50 for human HCT116 cells incubated for 72 hrs by MTT assay; assay type: toxicity; conditions: HaCaT cells and HCT116 cells, read-out: RatioGI50
[23] = tested on: Poly(dA-dU)oligonucleotide; assay: Binding affinity to polyA-polyU dsRNA (unknown origin) assessed as biphasic thermal denaturation transitions in sodium cacodylate buffer at pH 7 at compound:polynucleotide concentration ratio of 0.1 by thermal denaturation assay; assay type: nucleic-acid assay
[24] = tested on: Poly(dA-dU)oligonucleotide; assay: Binding affinity to polyA-polyU dsRNA (unknown origin) assessed as stabilization of polynucleotide in sodium cacodylate buffer at pH 7 at compound:polynucleotide concentration ratio of 0.1 to 0.2 by thermal denaturation assay; assay type: nucleic-acid assay
HCT-116 [25] = assay: Cytotoxicity against human HCT116 cells assessed as induction of massive cell death at 5 uM incubated for 24 to 48 hrs; assay type: functional, cell-based
[26] = Drug uptake in cytoplasm of human H460 cells assessed as perinuclear reticular staining at 10 uM incubated for 15 mins by fluorescence microscopy; assay type: ADME, cell-based; conditions: nci-h460, 0.25 h
[27] = Drug uptake in nucleus of human H460 cells at 10 uM incubated for 15 mins by fluorescence microscopy; assay type: ADME, cell-based; conditions: nci-h460, 0.25 h

Row | SMILES | GI50 (HCT-116 [1]) [µM] | GI50 (MCF7) [µM] | GI50 (NCI-H460) [µM] | GI50 at 72 h [2] [µM] | log Ks (Calf thymus DNA [3]) | Ratio (Calf thymus DNA [4]) | Ratio (Calf thymus DNA [5]) | ΔTm (Calf thymus DNA [6]) [°C] | solubility [10] | Activity (Calf thymus DNA [11]) | Activity [12] | Activity (Calf thymus DNA [13]) | Activity (Calf thymus DNA [14]) | Activity [15] | Activity (Calf thymus DNA [16]) | further results
1 | N#Cc1c(-n2cc(CNS(=O)(=O)c3ccc(F)cc3)nn2)c2ccccc2n2c1nc1ccccc12 | 3.5 | 4.2 | 13 | 2.9 |  |  |  |  |  |  |  |  |  |  |  | 
2 | CCCCCCCCCCc1cn(-c2c(C#N)c3nc4ccccc4n3c3cc(F)ccc23)nn1 | 3 | 5 | 7 | 3.5 |  |  |  |  |  |  |  |  |  |  |  | 
3 | N#Cc1c(-n2cc(CCCCl)nn2)c2ccc(-n3cc(CCCCl)nn3)cc2n2c1nc1ccccc12 | 2.5 | 6.9 | 3 | 3.2 | 5.4 | 0.1 | 0.8 | 1.5 | Soluble | Active | Active | Active | Active | Active | Active | ΔTm [7]: 0 °C; Drug uptake [8]: Active; Drug uptake [9]: Not Active
4 | CCCCCc1ccc(-c2cn(-c3ccc4c(-n5cc(-c6ccc(CCCCC)cc6)nn5)c(C#N)c5nc6ccccc6n5c4c3)nn2)cc1 | 8 | 18 | 16 |  |  |  |  |  |  |  |  |  |  |  |  | 
5 | N#Cc1c(-n2cc(CCCCl)nn2)c2ccc(F)cc2n2c1nc1ccccc12 | 0.5 | 2 | 0.7 | 3.5 | 5.2 | 0.1 | 0.5 | 0.5 | Soluble | Active | Active | inactive | Active | Active | Active | ΔTm [17]: 0.7 to 20.7 °C; log Ks [18]: 5.9; Ratio [19]: 0.1; Ratio [20]: 0.4; Activity (HCT-116 [21]): Active; Drug uptake [8]: Active; Drug uptake [9]: Not Active; selectivity ratio at 72 h [22]: > 7; ΔTm [23]: 0.7 to 16.6 °C; Activity [24]: Active; Activity (HCT-116 [25]): Active
6 | N#Cc1c(-n2cc(CCCCl)nn2)c2ccccc2n2c1nc1ccccc12 | 1 | 1.5 | 2 | 1 | 6.1 | 0.4 | 0.3 | 1.2 | Soluble | Active | Active | Active | Active | Active | Active | Drug uptake [26]: Active; ΔTm [17]: 0.4 to 25.3 °C; log Ks [18]: 6; Ratio [19]: 0.3; Ratio [20]: 0.2; Drug uptake [27]: Not Active; ΔTm [23]: 0.2 to 17 °C; Activity [24]: Active
7 | N#Cc1c(-n2cc(-c3cc(C(F)(F)F)cc(C(F)(F)F)c3)nn2)c2ccccc2n2c1nc1ccccc12 | 1 | 4 | 1 | 2.2 |  |  |  |  |  |  |  |  |  |  |  | 
8 | N#Cc1c(-n2cc(-c3cc(C(F)(F)F)cc(C(F)(F)F)c3)nn2)c2ccc(F)cc2n2c1nc1ccccc12 | 2 | 4.5 | 2 | 2.1 |  |  |  |  |  |  |  |  |  |  |  | 
9 | CCCCCCCCCCc1cn(-c2ccc3c(-n4cc(CCCCCCCCCC)nn4)c(C#N)c4nc5ccccc5n4c3c2)nn1 | 16 | 15 | 17 |  |  |  |  |  |  |  |  |  |  |  |  | 
10 | COc1cc([C@@H]2c3cc4c(cc3[C@@H](O[C@@H]3O[C@@H]5CO[C@@H](C)O[C@H]5[C@H](O)[C@H]3O)[C@H]3COC(=O)[C@H]23)OCO4)cc(OC)c1O [ETOPOSIDE] | 5 | 1 | 0.1 |  |  |  |  |  |  |  |  |  |  |  |  | 
